Measured values reported in patent publication US20130287688A1, “NOVEL COMPOSITIONS AND USES OF ANTI-HYPERTENSION AGENTS FOR CANCER THERAPY” (XTUIT PHARMACEUTICALS, INC., priority 2010, published 2013).

Legend:
tumors = assay: Solid stress after a panel of ARBs; assay type: in vivo; details: 40 mg/kg losartan, 3.2 mg/kg candesartan, 32 mg/kg valsartan
Method: Solid stress levels in tumors after angiotensin inhibition using the ARBs losartan, candesartan, and valsartan are shown. Doses were chosen based on their relative doses in patients for hypertension indications (40 mg/kg losartan, 3.2 mg/kg candesartan, 32 mg/kg valsartan). […] Animal numbers n=6-7. Statistical tests were corrected for multiple comparisons using the Holm-Bonferroni method.
The mechanism responsible for the increase in tumor vessel perfusion by losartan was investigated. Desmoplasia, high stromal cell and matrix density, is a major contributor to the solid stress accumulation that compresses vessels (Stylianopoulos T, et al., Growth-induced mechanical stress in murine and human tumors: causes, consequences and remedies. under review. 2012). Since angiotensin inhibitors reduce matrix production in tumors (Diop-Frimpong B, et al., Proc Natl Acad Sci USA. 2011; 108(7): 2909-14), it was hypothesized that they decompress vessels and increase perfusion by decreasing solid stress. Collagen levels were used as a metric of matrix production as described in Diop-Frimpong et al., Proc Nall Acad Sci USA. […] Moreover, losartan decreased collagen I concentration, measured based on staining intensity, in E0771 and AK4.4 tumors (FIGS. 24B-24C). Of note, dense collagen seemed to colocalize with low-perfusion areas (FIG. 24C). Next, solid stress in these tumors was measured using recently established technique described in Stylianopoulos T, et al., Growth-induced mechanical stress in murine and human tumors: causes, consequences and remedies. under review. 2012. […]
Solid stress: Solid stress was measured using the tumor opening technique as described previously (Stylianopoulos T, et al., Growth-induced mechanical stress in murine and human tumors: causes, consequences and remedies. under review. 2012). […] Subsequently, each tumor was excised, washed with Hanks' Balanced Salt Solution (HBSS) and its three dimensions were measured. […] Afterwards, the opening resulting from the cut was measured at the middle of the cut at the surface of the tumor. […]

E0771 breast tumors [1] = assay: Breast tumor growth and survival studies; assay type: in vivo, mice
Method: (§1) Breast tumor growth and survival studies: Mice bearing orthotopic E0771 or 4T1 breast tumors were split into treatment groups, time-matched for time after implantation and size-matched for tumor volume at this time (110-111 mm^3 in E0771, in 4T1). […] The primary tumors were then measured every 2 days, beginning on day 0, using calipers. Tumor growth was quantified using the time for each to reach double its initial volume Animal survival was quantified based on time of death after initiation of treatment or time to reach excessive tumor burden (>1000 mm^3).

4T1 breast tumors = assay: Breast tumor growth and survival studies; assay type: in vivo, mice
Description: In FIG. 35B, the quantification of tumor growth rates, based on the time to reach double the initial volume, is shown.
In FIG. 35C, the animal survival following the initiation of treatment is shown. […] Statistical tests were corrected for multiple comparisons using the Holm-Bonferroni method.
as §1

E0771 breast tumors [2] = assay: Tumor matrix level histology (collagen I); design: species or system SCID mouse; details: mouse, in vivo
Method: Collagen levels were used as a metric of matrix production as described in Diop-Frimpong et al., Proc Nall Acad Sci USA. […] Next, solid stress in these tumors was measured using recently established technique described in Stylianopoulos T, et al., Growth-induced mechanical stress in murine and human tumors: causes, consequences and remedies. under review.
Vessel perfusion, matrix level, and hypoxia histology: For breast tumors, mice bearing orthotopic E0771 were split into treatment groups, time-matched for time after implantation and size-matched for tumor volume at this time (−100 mm^3). For pancreatic tumors, mice bearing orthotopic AK4.4 were split into treatment groups, size-matched for tumor volume (˜22 mm^3), 6 days after implantation. […] On the day of the last treatment, mice were slowly (−2 min) injected with 100 μL of 1 mg/mL biotinylated lectin (Vector Labs), administered retro-orbitally 5 min prior to tumor removal. For hypoxia studies, the mice were also injected with 60 mg/kg of 10 mg/mL pimonidazole 1 hr prior to tumor removal. […] For matrix staining, collagen I was detected using the LF-67 antibody provided by Dr. Larry Fisher (National Institute of Dental Research, Bethesda, Md.).
Histological image analysis: Eight random images (four interior, four periphery) at 20× magnification were taken from each slide using a confocal microscope (Olympus). […] For perfusion, the number of vessels counted by this program with colocalization of lectin and CD31 staining was divided by the number of vessels counted with CD31 staining. For vessel metrics, including diameter and density, the program determined the average size of all counted vessels and their length, as well as the count per area Images of collagen I stained sections were analyzed based on the area fraction of positive staining and on the average staining intensity (concentration) in each image. […] Images of hypoxia staining with pimonidazole were similarly analyzed for the area fraction of positive staining, counting the fraction of pixels above a threshold based on background intensity.

E0771 tumors = assay: Solid stress (tumor opening technique); design: species or system mice; details: mouse, in vivo
Method: Solid stress was assessed using an ex vivo technique involving the measurement of the extent of tumor tissue relaxation (tumor opening relative to tumor diameter) following a stress-releasing incision, with larger openings indicating higher stress.
When the tumors reached a size of −1 cm in diameter, the mice were anesthetized. Subsequently, each tumor was excised, washed with Hanks' Balanced Salt Solution (HBSS) and its three dimensions were measured. Each tumor was cut along its longest axis, to a depth of 80% of its shortest dimension, using a scalpel. The tumors were allowed to relax for 10 minutes in HBSS to diminish any transient, poro-elastic responses. Afterwards, the opening resulting from the cut was measured at the middle of the cut at the surface of the tumor. Solid stress is proportional to the size of the opening relative to the size of the dimension perpendicular to the cut.

[3] = agent given alone (losartan 40 mg/kg daily or doxorubicin 2 mg/kg every three days)

CCOc1nc2cccc(C(=O)O)c2n1Cc1ccc(-c2ccccc2-c2nnn[nH]2)cc1 [candesartan]
solid stress (tumors): reduce solid stress to a similar degree

COc1cccc2c1C(=O)c1c(O)c3c(c(O)c1C2=O)C[C@@](O)(C(=O)CO)C[C@@H]3O[C@H]1C[C@H](N)[C@H](O)[C@H](C)O1 [doxorubicin]
tumor growth rate (E0771 breast tumors [1]; [3]): no significant effect | median survival (E0771 breast tumors [1]; doxorubicin alone): 16 days | tumor growth rate (4T1 breast tumors; [3]): no significant effect | survival (4T1 breast tumors; monotherapy): improves survival

NCCCC[C@H](N[C@@H](CCc1ccccc1)C(=O)O)C(=O)N1CCC[C@H]1C(=O)O [lisinopril]
matrix production, collagen I area fraction (E0771 breast tumors [2]): decreases | solid stress (E0771 tumors): reduces solid stress

CCCCC(=O)N(Cc1ccc(-c2ccccc2-c2nnn[nH]2)cc1)[C@H](C(=O)O)C(C)C [valsartan]
solid stress (tumors): reduce solid stress to a similar degree
